The supplement of paper PMC10307832

Columns and labels:
Experiment in all cases: relative viability (nuclei count vs DMSO), 5 days (fraction); higher = more cells survive
[1] = compound: CC1=C(CC(=O)O)c2cc(F)ccc2/C1=C\c1ccc([S+](C)[O-])cc1 [Sulindac] + N=C(N)NC(=N)NCCc1ccccc1 [Phenformin] (partner 250 µM)
In short: (§1)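 The day after seeding in 1536-well plates, lung cancer cell lines were treated by pin tool with a single drug, or with a fixed anchor-drug dose together with five library-drug doses (not always all listed) in √10 steps. After 5 days, a combined fix-and-stain solution (final 0.05% Triton X-100, 1% formaldehyde, 1 ug/ml Hoechst) was added. Nuclei counted on 4× images gave relative viability as treated counts over vehicle counts, reported as the median of duplicate plates.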

[2] = compound: CC1=C(CC(=O)O)c2cc(F)ccc2/C1=C\c1ccc([S+](C)[O-])cc1 [Sulindac] + CC(=O)c1c(C)c2cnc(Nc3ccc(N4CCNCC4)cn3)nc2n(C2CCCC2)c1=O [Palbociclib] (partner 0.5 µM)
In short: as §1

[3] = compound: CN[C@@H]1C[C@H]2O[C@@](C)([C@@H]1OC)n1c3ccccc3c3c4c(c5c6ccccc6n2c5c31)C(=O)NC4 [Staurosporine] + C[C@@H](Oc1cc(-c2cnn(C3CCNCC3)c2)cnc1N)c1c(Cl)ccc(F)c1Cl [Crizotinib] (partner 1 µM)
In short: as §1

[4] = compound: O=c1[nH]cc(F)c(=O)[nH]1 [5-Fluorouracil] + CC(C)C[C@H](NC(=O)[C@H](Cc1ccccc1)NC(=O)c1cnccn1)B(O)O [Bortezomib] (partner 0.002 µM)
In short: as §1

Row | Cell Line | relative viability ([1]; first compound 0.08 µM) | relative viability ([1]; first compound 0.253 µM) | relative viability ([1]; first compound 0.8 µM) | relative viability ([1]; first compound 2.53 µM) | relative viability ([1]; first compound 8 µM) | relative viability ([2]; first compound 0.08 µM) | relative viability ([2]; first compound 0.253 µM) | relative viability ([2]; first compound 0.8 µM) | relative viability ([2]; first compound 2.53 µM) | relative viability ([2]; first compound 8 µM) | relative viability ([3]; first compound 0.005 µM) | relative viability ([3]; first compound 0.05 µM) | relative viability ([3]; first compound 0.1581 µM) | relative viability ([3]; first compound 0.5 µM) | relative viability ([4]; first compound 0.02 µM) | relative viability ([4]; first compound 0.2 µM) | relative viability ([4]; first compound 0.6325 µM) | relative viability ([4]; first compound 2 µM) | relative viability ([3]; first compound 0.01581 µM)
1 | NCI-H522 | 0.709 | 0.715 | 0.689 | 0.688 | 0.674 | 0.972 | 0.955 | 0.818 | 1.17 | 1.04 | – | – | – | – | – | – | – | – | –
2 | NCI-H1944 | 0.209 | 0.226 | 0.18 | 0.203 | 0.271 | 0.363 | 0.333 | 0.338 | 0.351 | 0.374 | 1.13 | 0.633 | 0.666 | 0.336 | – | – | – | – | –
3 | PC-14 | 0.571 | 0.403 | 0.403 | 0.537 | 0.853 | 0.562 | 0.497 | 0.489 | 0.567 | 0.758 | 0.683 | 0.141 | 0.0852 | 0.0777 | 0.876 | 0.897 | 0.818 | 0.516 | 0.714
4 | NCI-H1650 | 0.372 | 0.481 | – | 0.41 | 0.53 | 0.271 | 0.331 | 0.341 | 0.346 | 0.315 | 0.537 | 0.242 | 0.197 | 0.106 | 0.195 | 0.187 | 0.185 | 0.174 | 0.389
5 | HCC-827 | 0.395 | 0.367 | 0.414 | 0.413 | 0.426 | 0.496 | 0.552 | 0.48 | 0.547 | 0.465 | 0.927 | 0.583 | 0.575 | 0.442 | 0.805 | 1.1 | 0.733 | 0.596 | 0.803
6 | HCC-366 | 0.651 | 0.679 | 0.587 | 0.61 | 0.703 | 0.442 | 0.36 | – | 0.301 | 0.555 | 0.972 | 0.171 | 0.0224 | 0.0156 | 1.08 | 0.946 | 0.523 | 0.0524 | –
7 | HARA | 0.56 | 0.523 | 0.29 | 0.468 | 0.553 | 0.294 | 0.3 | 0.3 | 0.256 | 0.227 | 0.756 | 0.158 | 0.147 | – | 1.17 | 1.15 | 1.08 | 1.03 | 0.558
8 | NCI-H441 | 0.992 | 1.03 | 0.456 | 0.808 | 0.958 | 0.193 | 0.183 | 0.188 | 0.207 | 0.195 | 0.8 | 0.3 | 0.179 | 0.156 | 0.513 | 0.408 | 0.482 | 0.303 | 0.29
9 | LXF-289 | 0.551 | 0.559 | 0.491 | 0.517 | 0.559 | 0.685 | 0.672 | 0.556 | 0.659 | 0.624 | 0.751 | 0.258 | 0.0796 | 0.0672 | 0.99 | 0.712 | 0.312 | 0.282 | –
10 | SK-LU-1 | 0.498 | 0.567 | 0.444 | 0.444 | 0.668 | 0.387 | 0.417 | 0.464 | 0.369 | 0.408 | 0.372 | 0.19 | 0.169 | 0.161 | 1.12 | 1.34 | 1.18 | 0.981 | 0.198
11 | CAL-12T | 0.662 | 0.615 | 0.418 | 0.529 | 0.681 | 0.216 | 0.549 | 0.314 | 0.526 | 0.576 | 0.16 | 0.0843 | 0.113 | 0.0906 | 1.13 | 1.05 | 0.911 | 0.751 | 0.0981
12 | COR-L 105 | 0.456 | 0.477 | 0.417 | 0.564 | 0.558 | 0.387 | 0.402 | 0.365 | 0.412 | 0.395 | 0.45 | – | 0.307 | 0.195 | 0.662 | 0.704 | 0.597 | 0.401 | 0.405
13 | NCI-H2405 | 0.395 | 0.455 | 0.505 | 0.389 | 0.465 | 0.531 | 0.525 | 0.5 | 0.509 | 0.593 | 0.681 | 0.146 | 0.125 | 0.106 | 0.943 | 1.02 | 0.96 | 0.681 | 0.319
14 | NCI-H2228 | 0.388 | 0.352 | 0.254 | 0.271 | 0.341 | 0.876 | 0.967 | 0.487 | 0.864 | 0.831 | 0.292 | 0.177 | 0.169 | 0.132 | 1.03 | 0.911 | 0.811 | 0.442 | 0.234
15 | PC-3 [JPC-3] | 0.475 | 0.494 | 0.657 | 0.458 | 0.548 | 0.477 | 0.521 | 0.596 | 0.502 | 0.545 | – | 0.707 | 0.498 | 0.425 | 0.841 | 0.84 | 0.762 | 0.643 | –
16 | SW 1573 | 0.458 | 0.365 | – | 0.388 | 0.509 | 0.451 | 0.406 | 0.362 | 0.336 | 0.464 | 0.678 | 0.186 | 0.134 | 0.119 | 1.08 | 1.1 | 0.922 | 0.638 | 0.583
17 | A549 | 0.109 | 0.154 | 0.95 | 0.232 | 0.244 | – | – | – | – | – | 0.369 | 0.0867 | 0.0411 | 0.0307 | – | – | – | – | 0.19
18 | NCI-H1648 | – | – | – | – | – | 0.275 | 0.268 | – | 0.242 | 0.282 | – | – | – | – | – | – | – | – | –
19 | NCI-H1623 | 0.561 | 0.595 | 0.663 | 0.632 | 0.6 | – | – | – | – | – | – | – | – | – | – | – | – | – | –
20 | NCI-H1666 | 0.564 | 0.629 | 0.561 | 0.529 | 0.631 | 0.632 | 0.606 | 0.545 | 0.727 | 0.624 | 0.536 | 0.418 | 0.236 | 0.2 | 0.878 | 0.475 | 0.39 | 0.39 | 0.528
